Measurements reported in ChEMBL document CHEMBL3098101, “Fragment based discovery of arginine isosteres through REPLACE: towards non-ATP competitive CDK inhibitors” (Bioorg Med Chem, 2014).
Where a SMILES comes first, the peptide text is derived from it. [ ]: non-standard residue; d: D form. The star is where a group is joined. Furoyl(5-pyrazol-1-ylmethyl) = O=C(c1ccc(Cn2cccn2)o1)*; Phe(4-F) = N[C@@H](Cc1ccc(F)cc1)C(=O)O; Picolinoyl(6-Me) = Cc1cccc(C(=O)*)n1; X13 = CN1CCN(Cc2ccc(C(=O)*)o2)CC1; X1 = Cc1cnn(Cc2ccc(C(=O)*)o2)c1; X11 = CCN(CC)Cc1ccc(C(=O)*)o1; X12 = O=C(c1csc(-c2cccs2)n1)*; X14 = O=C(c1csc(-c2ccsc2)n1)*; X15 = CCOc1ccc(CC(=O)*)cc1OCC; X7 = CC(C)COc1ccc(CC(=O)*)cc1; X4 = O=C(c1ccc(Cn2ccnc2)o1)*; Picolinoyl = O=C(c1ccccn1)*; X16 = CCOc1ccc(CC(=O)*)cc1; X9 = CCCOc1ccc(CC(=O)*)cc1; X10 = CCOc1cccc(C(=O)*)n1; X8 = COc1cccc(C(=O)*)n1

Columns and labels:
CDK2/Cyclin A2 = CDK2/Cyclin A2 (Homo sapiens, UniProt P24941); assay: Inhibition of human recombinant CDK2/cyclin A using fluoresceinyl-Ahx-Pro-Val-Lys-Arg-Arg-Leu-Phe-Gly as substrate after 45 mins by fluorescence polarization assay; format: protein-complex assay
[1] = molecular target: Cyclin-dependent kinase 4/cyclin D1 (Homo sapiens, UniProt P24385); assay: Inhibition of human recombinant CDK4/cyclin D1 using fluoresceinyl-Ahx-Pro-Val-Lys-Arg-Arg-Leu-(3ClPhe)-Gly as substrate after 45 mins by fluorescence polarization assay; format: protein-complex assay
Cyclin-dependent kinase 4/cyclin D1, sequence (P11802 whole entry): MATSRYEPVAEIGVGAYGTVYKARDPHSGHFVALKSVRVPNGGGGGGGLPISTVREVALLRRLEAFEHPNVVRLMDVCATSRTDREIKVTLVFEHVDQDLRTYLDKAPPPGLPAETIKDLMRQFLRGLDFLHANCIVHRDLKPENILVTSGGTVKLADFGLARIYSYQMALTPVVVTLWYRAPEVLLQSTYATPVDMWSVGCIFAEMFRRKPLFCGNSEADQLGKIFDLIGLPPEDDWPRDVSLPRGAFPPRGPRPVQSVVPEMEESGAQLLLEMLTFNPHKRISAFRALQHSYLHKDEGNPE
Cyclin-dependent kinase 4/cyclin D1, sequence (P24385 whole entry): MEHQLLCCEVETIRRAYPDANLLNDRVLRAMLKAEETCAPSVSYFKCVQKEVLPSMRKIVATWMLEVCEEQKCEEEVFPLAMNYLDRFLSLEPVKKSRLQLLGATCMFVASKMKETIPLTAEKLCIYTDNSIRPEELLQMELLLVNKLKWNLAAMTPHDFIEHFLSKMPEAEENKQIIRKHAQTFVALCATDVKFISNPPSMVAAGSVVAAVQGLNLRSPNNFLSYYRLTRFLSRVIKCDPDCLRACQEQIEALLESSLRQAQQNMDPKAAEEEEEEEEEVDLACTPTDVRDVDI

Compound | IC50 (CDK2/Cyclin A2) [µM] | IC50 [1] [µM]
CC[C@H](C)[C@H](NC(=O)[C@H](CC(C)C)NC(=O)[C@H](CCCN=C(N)N)NC(=O)c1ccc(Cn2cccn2)o1)C(=O)N[C@@H](Cc1ccccc1)C(=O)O ({Furoyl(5-pyrazol-1-ylmethyl)}-RLIF-OH) | > 100 | > 100
CC[C@H](C)[C@H](NC(=O)[C@H](CC(C)C)NC(=O)[C@H](CCCN=C(N)N)NC(=O)c1csc(-c2ccsc2)n1)C(=O)N[C@@H](Cc1ccccc1)C(=O)O (X14-RLIF-OH) | 56.2 | > 180
CC[C@H](C)[C@H](NC(=O)[C@H](CC(C)C)NC(=O)[C@H](CCCN=C(N)N)NC(=O)c1ccc(Cn2ccnc2)o1)C(=O)N[C@@H](Cc1ccccc1)C(=O)O (X4-RLIF-OH) | > 100 | 159
CC[C@H](C)[C@H](NC(=O)[C@H](CC(C)C)NC(=O)[C@H](CCCNC(=N)N)NC(=O)c1ccc(CN2CCN(C)CC2)o1)C(=O)N[C@@H](Cc1ccccc1)C(=O)O (X13-RLIF-OH) | 50.3 | 43.2
CCCOc1ccc(CC(=O)N[C@@H](CCCN=C(N)N)C(=O)N[C@@H](CC(C)C)C(=O)N[C@@H](CC(N)=O)C(=O)N[C@@H](Cc2ccc(F)cc2)C(=O)O)cc1 (X9-RLN[Phe(4-F)]-OH) | > 100 | > 50
CC[C@H](C)[C@H](NC(=O)[C@H](CC(C)C)NC(=O)[C@H](CCCNC(=N)N)NC(=O)c1cccc(C)n1)C(=O)N[C@@H](Cc1ccccc1)C(=O)O ({Picolinoyl(6-Me)}-RLIF-OH) | > 100 | 85.7
CC[C@H](C)[C@H](NC(=O)[C@H](CC(C)C)NC(=O)[C@H](CCCN=C(N)N)NC(=O)c1ccc(Cn2cc(C)cn2)o1)C(=O)N[C@@H](Cc1ccccc1)C(=O)O (X1-RLIF-OH) | > 100 | > 180
CC(C)C[C@H](NC(=O)[C@H](CCCN=C(N)N)NC(=O)c1ccccn1)C(=O)N[C@@H](CC(N)=O)C(=O)N[C@@H](Cc1ccc(F)cc1)C(=O)O (Picolinoyl-RLN[Phe(4-F)]-OH) | 29.2 | 48.4
CC(C)COc1ccc(CC(=O)N[C@@H](CCCNC(=N)N)C(=O)N[C@@H](CC(C)C)C(=O)N[C@@H](CC(N)=O)C(=O)N[C@@H](Cc2ccc(F)cc2)C(=O)O)cc1 (X7-RLN[Phe(4-F)]-OH) | > 100 | > 100
CC[C@H](C)[C@H](NC(=O)[C@H](CC(C)C)NC(=O)[C@H](CCCNC(=N)N)NC(=O)c1csc(-c2cccs2)n1)C(=O)N[C@@H](Cc1ccccc1)C(=O)O (X12-RLIF-OH) | > 180 | > 180
CCOc1cccc(C(=O)N[C@@H](CCCNC(=N)N)C(=O)N[C@@H](CC(C)C)C(=O)N[C@@H](CC(N)=O)C(=O)N[C@@H](Cc2ccc(F)cc2)C(=O)O)n1 (X10-RLN[Phe(4-F)]-OH) | 39.7 | > 100
COc1cccc(C(=O)N[C@@H](CCCN=C(N)N)C(=O)N[C@@H](CC(C)C)C(=O)N[C@@H](CC(N)=O)C(=O)N[C@@H](Cc2ccc(F)cc2)C(=O)O)n1 (X8-RLN[Phe(4-F)]-OH) | 36.4 | 36.9
CC[C@H](C)[C@H](NC(=O)[C@H](CC(C)C)NC(=O)[C@H](CCCNC(=N)N)NC(=O)c1ccc(CN(CC)CC)o1)C(=O)N[C@@H](Cc1ccccc1)C(=O)O (X11-RLIF-OH) | 43.5 | 41.9
CCOc1ccc(CC(=O)N[C@@H](CCCN=C(N)N)C(=O)N[C@@H](CC(C)C)C(=O)N[C@@H](CC(N)=O)C(=O)N[C@@H](Cc2ccc(F)cc2)C(=O)O)cc1 (X16-RLN[Phe(4-F)]-OH) | > 100 | > 100
CCOc1ccc(CC(=O)N[C@@H](CCCNC(=N)N)C(=O)N[C@@H](CC(C)C)C(=O)N[C@@H](CC(N)=O)C(=O)N[C@@H](Cc2ccc(F)cc2)C(=O)O)cc1OCC (X15-RLN[Phe(4-F)]-OH) | 5.2 | 3
